In BindingDB's records for doi:10.1016/s0968-0896(98)00004-2 (Sankyo, 1998):
pIC50: −log10 of the molar value.

These molecules were tested against T1, Dimer of Gag-Pol polyprotein [489-587] (Human immunodeficiency virus 1, UniProt P12497) (assay: Protease Inhibition Assay).
T1 construct: 489-587
Description: The inhibitory activities of the compounds toward HIV-1 PR were determined by sodium dodecyl sulfate-polyacrylamide gel electrophoresis (SDS-PAGE) assay. The IC50 values of active compounds were determined using the partially purified protease and the synthetic substrate Ac-Ser-Gln-AsnTyr-Pro-Ile-Val-NH2.

SMILES | pIC50
CC(C)(C)NC(=O)[C@@H]1C[C@H](Cl)CN1C(=O)[C@@H](O)[C@H](Cc1ccccc1)NC(=O)O[C@H]1CCOC1 [(3S)-oxolan-3-yl N-[(2S,3S)-4-[(2S,4S)-2-(tert-butylcarbamoyl)-4-chloropyrrolidin-1-yl]-3-hydroxy-4-oxo-1-phenylbutan-2-yl]carbamate] | 8.29
COC1O[C@H]2[C@H](OC(=O)N[C@@H](Cc3ccccc3)[C@H](O)C(=O)N3C[C@@H](Cl)C[C@H]3C(=O)NC(C)(C)C)[C@H](OC)OC[C@H]2O1 (stereo partly drawn) [(3aR,6R,7S,7aR)-2,6-dimethoxy-hexahydro-[1,3]dioxolo[4,5-c]pyran-7-yl N-[(2S,3S)-4-[(2S,4S)-2-(tert-butylcarbamoyl)-4-chloropyrrolidin-1-yl]-3-hydroxy-4-oxo-1-phenylbutan-2-yl]carbamate] | < 6.00
CC(C)(C)NC(=O)[C@@H]1C[C@H](Cl)CN1C(=O)[C@@H](O)[C@H](Cc1ccccc1)NC(=O)OC1CCS(=O)(=O)C1 (stereo partly drawn) [[3(R,S) - (1,1 - Dioxo - tetrahydrothiophenyl)oxy]carbonyl-(2S,3S)-AHPBA-4(S)-Cl-Pro-NH-t-Bu] | 7.96
CC(C)(C)NC(=O)[C@@H]1C[C@H](Cl)CN1C(=O)[C@@H](O)[C@H](Cc1ccccc1)NC(=O)OC1CCOC1 (stereo partly drawn) [[3(R,S)-(Tetrahydrofuranyl)oxy]carbonyl-(2S,3S)-AHPBA-4(S)-Cl-Pro-NH-t-Bu] | 8.31
CC(C)(C)NC(=O)[C@@H]1C[C@H](Cl)CN1C(=O)[C@@H](O)[C@H](Cc1ccccc1)NC(=O)O[C@H]1C=CCOC1 [[5(R) - (5,6 - Dihydro - 2H-pyranyl)oxy]carbonyl - (2S,3S)-AHPBA-4(S)-Cl-Pro-NH-t-Bu] | 8.35
CO[C@@H]1OCC=C[C@@H]1OC(=O)N[C@@H](Cc1ccccc1)[C@H](O)C(=O)N1C[C@@H](Cl)C[C@H]1C(=O)NC(C)(C)C [[5(S)-[6(R)-Methoxy-5,6-dihydro-2H-pyranyl]oxy]carbonyl-(2S,3S)-AHPBA-4(S)-Cl-Pro-NH-t-Bu] | 7.54
CC(C)(C)NC(=O)[C@@H]1C[C@H](Cl)CN1C(=O)[C@@H](O)[C@H](Cc1ccccc1)NC(=O)c1ccc2ccccc2c1 [beta-Naphthoyl-(2S,3S)-AHPBA-4(S)-Cl-Pro-NH-t-Bu] | 7.30
CC(C)(C)NC(=O)[C@@H]1C[C@H](Cl)CN1C(=O)[C@@H](O)[C@H](Cc1ccccc1)NC(=O)OC1CCCC1 [cyclopentyl N-[(2S,3S)-4-[(2S,4S)-2-(tert-butylcarbamoyl)-4-chloropyrrolidin-1-yl]-3-hydroxy-4-oxo-1-phenylbutan-2-yl]carbamate] | 7.72
CC(C)(C)NC(=O)[C@@H]1C[C@H](Cl)CN1C(=O)[C@@H](O)[C@H](Cc1ccccc1)NC(=O)OC1CCSC1 (stereo partly drawn) [thiolan-3-yl N-[(2S,3S)-4-[(2S,4S)-2-(tert-butylcarbamoyl)-4-chloropyrrolidin-1-yl]-3-hydroxy-4-oxo-1-phenylbutan-2-yl]carbamate] | 8.11
